Broadly, the pIC50 is the negative decadic logarithm of the IC50, by convention in mol/L. Read a low pIC50 as a large IC50.

In test [1] the target is Glycogen synthase kinase-3 beta (Homo sapiens, UniProt P49841). As to the kind of experiment: TR-FRET Assay. The method, boiled down: (§1)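 Compound was preincubated 30 min in assay buffer before the kinase reaction, which was quenched with EDTA. Phosphorylation was detected by TR-FRET after adding a solution of 40 nM streptavidin-d2 and 2 nM Tb-labelled anti-pSer641 antibody.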
Chain of Glycogen synthase kinase-3 beta (P49841 whole entry): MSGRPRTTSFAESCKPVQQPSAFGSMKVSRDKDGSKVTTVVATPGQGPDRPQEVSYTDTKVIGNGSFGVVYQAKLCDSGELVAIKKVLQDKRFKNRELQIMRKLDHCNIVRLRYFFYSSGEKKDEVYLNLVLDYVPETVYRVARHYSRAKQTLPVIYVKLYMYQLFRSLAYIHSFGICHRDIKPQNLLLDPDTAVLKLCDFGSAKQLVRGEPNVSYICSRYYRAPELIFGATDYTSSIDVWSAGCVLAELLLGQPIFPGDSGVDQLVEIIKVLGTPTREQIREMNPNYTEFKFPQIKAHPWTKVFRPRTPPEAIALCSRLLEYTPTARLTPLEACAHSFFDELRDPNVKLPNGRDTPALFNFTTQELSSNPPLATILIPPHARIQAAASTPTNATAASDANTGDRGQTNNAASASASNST
For orientation: TR-FRET usually uses a lanthanide donor and a delayed reading to cut background.

Test [2] addresses Glycogen synthase kinase-3 alpha (Homo sapiens, UniProt P49840). The test can be described thus: TR-FRET Assay. The procedure, abridged: as §1

SMILES strings stand for the structures. pIC50: −log10 of the molar value.

Chain of Glycogen synthase kinase-3 alpha (P49840 whole entry): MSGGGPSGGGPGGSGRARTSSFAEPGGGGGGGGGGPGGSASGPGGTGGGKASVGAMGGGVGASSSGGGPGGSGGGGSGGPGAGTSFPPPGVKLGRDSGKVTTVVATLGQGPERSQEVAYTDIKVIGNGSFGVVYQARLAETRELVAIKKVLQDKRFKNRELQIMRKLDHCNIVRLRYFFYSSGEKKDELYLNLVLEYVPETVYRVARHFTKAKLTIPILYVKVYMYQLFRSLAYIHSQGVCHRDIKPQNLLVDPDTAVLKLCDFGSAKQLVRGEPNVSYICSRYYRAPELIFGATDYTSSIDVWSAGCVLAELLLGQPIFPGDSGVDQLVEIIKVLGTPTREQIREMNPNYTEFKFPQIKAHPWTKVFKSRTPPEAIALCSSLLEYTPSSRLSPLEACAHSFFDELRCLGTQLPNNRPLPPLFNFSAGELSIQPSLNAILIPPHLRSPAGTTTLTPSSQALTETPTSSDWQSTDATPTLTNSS

Turning to `CCC1(c2cccc(S(C)(=O)=O)c2)C2=CN=NC2NC2=C1C(=O)CC(C)(C)C2` (stereo unspecified) [US20250313563, Compound 819561], the pIC50 in test [1] and in test [2] was more than 7.00 in each case.

On to `CC[C@@]1(c2cccc(-c3ccnn3C(C)C)c2)C2=CN=NC2NC2=C1C(=O)CC(C)(C)C2` (stereo partly specified) [US20250313563, Compound 946091], for which the pIC50 in test [1] and in test [2] was more than 7.00 in each case.

For `CCC1(c2cccc(C3=CN=NC3)c2)C2=C(CC(C)(C)NC2=O)NC2N=NC(C(F)(F)F)=C21` (stereo unspecified) [US20250313563, Compound 947677], the pIC50 in test [1] and in test [2] was more than 7.00 in each case.

Turning to `CCn1nc(C)cc1S(=O)(=O)N1CCC2(CC1)C1=CN=NC1NC1=C2C(=O)CC(C)(C)C1` (stereo unspecified) [US20250313563, Compound 947609], the pIC50 in test [1] was 6.00 to 7.00; in test [2], more than 7.00.

`CCc1cnccc1-c1cccc([C@@]2(CC)C3=CN=NC3NC3=C2C(=O)NC(C)(C)C3)c1` (stereo partly specified) [US20250313563, Compound 948639]: the values for the negative logarithm of the IC50 (pIC50) in test [1] and in test [2] were 6.00 to 7.00 and more than 7.00, respectively.

In the case of `CC[C@]1(c2cccc(-c3ccncc3Cl)c2)C2=CN=NC2NC2=C1C(=O)NC(C)(C)C2` (stereo partly specified) [US20250313563, Compound 948020], the pIC50 in test [1] and in test [2] was 6.00 to 7.00 in each case.

`CCC1(c2cccc(-c3cncn3C)c2)C2=C(CC(C)(C)NC2=O)NC2N=NC(C(F)(F)F)=C21` (stereo unspecified) [US20250313563, Compound 948180]: the pIC50 in test [1] and in test [2] was more than 7.00 in each case.

For the compound `CCC1(c2cccc(OC(C)C)c2)C2=CN=NC2NC2=C1C(=O)CC(C)(C)C2` (stereo unspecified) [US20250313563, Compound 801448], the pIC50 was 6.00 to 7.00 in test [1] and more than 7.00 in test [2].
